SMILES strings stand for the structures. Where only a bound is given, the exact number is not on record here.

Chain of ENPP1 (hENPP1-ECD-His) (P22413 98-925): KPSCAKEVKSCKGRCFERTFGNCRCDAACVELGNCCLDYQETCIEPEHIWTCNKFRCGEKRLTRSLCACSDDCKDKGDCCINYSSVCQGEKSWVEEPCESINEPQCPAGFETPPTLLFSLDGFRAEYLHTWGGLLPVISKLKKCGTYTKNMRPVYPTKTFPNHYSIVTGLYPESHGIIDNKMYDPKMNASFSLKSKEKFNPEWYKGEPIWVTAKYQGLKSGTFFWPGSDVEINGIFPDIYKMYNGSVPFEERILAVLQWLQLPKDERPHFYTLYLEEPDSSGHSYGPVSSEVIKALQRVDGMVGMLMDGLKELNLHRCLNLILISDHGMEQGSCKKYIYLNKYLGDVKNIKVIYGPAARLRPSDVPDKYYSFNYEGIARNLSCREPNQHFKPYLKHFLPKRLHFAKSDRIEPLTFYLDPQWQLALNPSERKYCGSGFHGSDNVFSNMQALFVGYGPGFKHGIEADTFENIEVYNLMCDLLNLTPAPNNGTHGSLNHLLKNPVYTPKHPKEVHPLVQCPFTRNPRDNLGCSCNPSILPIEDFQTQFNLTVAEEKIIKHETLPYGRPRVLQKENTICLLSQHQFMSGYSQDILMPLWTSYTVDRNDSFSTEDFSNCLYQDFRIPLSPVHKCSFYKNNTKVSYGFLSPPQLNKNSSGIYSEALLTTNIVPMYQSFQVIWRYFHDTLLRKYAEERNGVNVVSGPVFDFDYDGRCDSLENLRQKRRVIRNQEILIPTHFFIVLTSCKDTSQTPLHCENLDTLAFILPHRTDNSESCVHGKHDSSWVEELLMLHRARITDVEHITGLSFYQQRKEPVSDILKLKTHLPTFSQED

Tested on in one series: not listed separately
In words: Preliminary pharmacokinetic testing in ICR mice (gavage 5 mg/kg, intravenous 1 mg/kg). Type of series: in vivo. To be noted: male, mouse, oral administration (5 mg/kg), plasma. How it is done:
1. 6 healthy ICR mice, male, weighing 30-35 g, were randomly divided into 2 groups with 3 mice in each group. The tested compound was administered by gavage (5 mg/kg) and intravenous injection (1 mg/kg), respectively:
Feeding uniformly 4 hours after administration.
The term AUC(0-t) denotes exposure summed from dosing to a finite time, without extrapolation to infinity. Read a high AUC(0-t) as more exposure. Usually half-life stands for how long it takes for the measured level to halve. High values mean slow decline, low ones rapid decline. The compound `COc1ccc2c(Oc3ccc(C(C)(C)C(=O)NO)c(F)c3)ccnc2n1` [Compound 110] showed an AUC(0-t) of 1590 ng·h/mL and a half-life of 3.9 h.

Staying with this series, now noted: male, mouse, oral administration (5 mg/kg), plasma, read-out: Cmax.
Broadly, the Cmax is the maximum level reached in the sampled fluid or tissue. Regarding `COc1ccc2c(Oc3ccc(C(C)(C)C(=O)NO)c(F)c3)ccnc2n1` [Compound 110], the Cmax is 2370 ng/mL.

The same series, now with this note: male, mouse, plasma, po, 5 mg/kg, read-out: oral bioavailability.
A word on the bioavailability: it is dose-corrected exposure relative to a reference, in per cent. Regarding `COc1ccc2c(Oc3ccc(C(C)(C)C(=O)NO)c(F)c3)ccnc2n1` [Compound 110], the bioavailability was above 20%.

The next series has as its target ENPP1 (hENPP1-ECD-His) (Homo sapiens (Human), UniProt P22413).
Test: not given
Details: not given
As a reminder, the IC50 is the concentration at which inhibition is half-maximal. A higher IC50 goes with lower potency. On to `COc1ccc2c(Oc3ccc(C(C)(C)C(=O)NO)c(C)c3)ccnc2n1` [Compound 109], for which half-maximal inhibition (IC50) required 2.3 nM.
As to `COc1cc(Nc2ncnc3c2cnn3C)ccc1C(C)(C)C(=O)NO` [Compound 126], the IC50 came to 21 nM.
The same measure, in the same setting: under `CCn1ncc2c(Nc3ccc(C(C)C(=O)NO)c(F)c3)ccnc21` (stereo not shown) [Compound 65] stands 1.9 nM; under `COc1ccc2c(Cc3ccc(C4(C(=O)NO)CCOCC4)cc3)ccnc2n1` [Compound 171], 1.8 nM; under `COc1ccc2c(Nc3cc(F)c(CC(=O)NO)c(F)c3)ccnc2n1` [Compound 70], 1.7 nM.
Same read-out and setting: as for `COc1ccc2c(Oc3ccc(C(C)(C)C(=O)NO)cc3)cc(C)nc2n1` [Compound 67], the figure is 1.7 nM; as for `COc1ccc2c(Oc3cc(F)c(C4(C(=O)NO)CCOCC4)cc3F)ccnc2n1` [Compound 134], 3.3 nM.
Same read-out and setting: as for `CCn1ncc2c(Nc3ccc(CC(=O)NO)cc3F)ccnc21` [Compound 192], the figure is 1.4 nM.
In the case of `COc1ccc2c(NC3CCN(CC(=O)NO)C3)ccnc2n1` (stereo not shown) [Compound 143], the midpoint of inhibition, the IC50, lay at 4.7 nM.
On the same count and under the same terms, as for `COc1ccc2c(NC3CCN(C(C)(C)C(=O)NO)C3)ccnc2n1` (stereo not shown) [Compound 144], the figure is 259 nM.
The compound `COc1cc2ncnc(Nc3ccc(C(C(=O)NO)C(C)C)cc3)c2cn1` (stereo not shown) [Compound 187] yielded a half-maximal inhibitory concentration (IC50) of 27 nM.
Same read-out and setting: under `O=C(Cc1ccc(Nc2ncnc3cnccc23)cc1)NO` [Compound 35] stands 49 nM; under `COc1ccc2c(Oc3ccc(C(C(=O)NO)C(C)C)c(F)c3)ccnc2n1` (stereo not shown) [Compound 150], 7.2 nM.
Same read-out and setting: as for `COc1ccc2c(Nc3ccc(C(C(=O)NO)C(C)C)cc3)ccnc2n1` (stereo not shown) [Compound 161], the figure is 16 nM; as for `COc1ccc2c(Oc3ccc(C4(C(=O)NO)CCOCC4)c(C)c3)ccnc2n1` [Compound 139], 2.3 nM.
Still for that read-out and setting: under `O=C(Cc1ccc(Nc2ncnc3c2cnn3CC(F)(F)F)cc1)NO` [Compound 57] stands 513 nM; under `COc1ccc2c(Oc3ccc(C(O)C(=O)NO)cc3)ccnc2n1` (stereo not shown) [Compound 38], 4.4 nM; under `COc1ccc2c(Nc3ccc(C(C)(C)C(=O)NO)nc3)ccnc2n1` [Compound 127], 1.6 nM.
In turn, `COc1cc2nccc(Oc3ccc(CC(=O)NO)cc3)c2cn1` [Compound 19] had an IC50 of 2.9 nM. This IC50 is about 1.8-fold higher than that of the compound before.
The same measure, in the same setting: as for `COc1ccc2c(Nc3ccc(CC(=O)NO)c4ccccc34)ccnc2n1` [Compound 96], the figure is 6.8 nM; as for `COc1ccc2c(N[C@H]3CCN(C(C)(C)C(=O)NO)C3)ccnc2n1` [Compound 202], 3.3 nM; as for `COc1cc2nccc(Oc3ccc(CC(=O)NO)cc3)c2cc1F` [Compound 13], 1.37 nM.
On the same count and under the same terms, under `COc1ccc2c(Oc3ccc(C(OC)C(=O)NO)cc3)ccnc2n1` (stereo not shown) [Compound 85] stands 4.8 nM.
`COc1ccc2c(Oc3ccc(CC(=O)NO)cc3F)ccnc2n1` [Compound 26] had an IC50 of 1.3 nM.
On the same count and under the same terms, as for `COc1cc2ncnc(Nc3ccc(C(CC(C)C)C(=O)NO)cc3)c2cn1` (stereo not shown) [Compound 188], the figure is 4.6 nM.
Consider `COc1ccc2c(Oc3ccc(C4(C(=O)NO)CCOCC4)cc3F)ccnc2n1` [Compound 136], for which the IC50 was found to be 4.4 nM.
Regarding `COc1ccc2c(Oc3ccc(C4(C(=O)NO)CCN(Cc5ccccc5)CC4)cc3)ccnc2n1` [Compound 173], it took 1.6 nM to reach half-maximal inhibition (IC50).
On the same count and under the same terms, under `COc1ccc2c(Nc3ccc(C4(C(=O)NO)CCOCC4)cc3)c(C#N)cnc2c1` [Compound 180] stands 1.6 nM; under `COc1cc2nccc(Nc3cc(F)c(C(CC(C)C)C(=O)NO)c(F)c3)c2cn1` (stereo not shown) [Compound 186], 3.8 nM; under `Cn1ncc2c(Oc3ccc(C4(C(=O)NO)CC4)cc3)ccnc21` [Compound 80], 1.9 nM.
`CC(C)(C(=O)NO)c1ccc(Oc2ccnc3cc(Cl)ccc23)cc1` [Compound 94] yielded an IC50 of 257 nM.
Compound `COc1ccc2c(N[C@H]3CC[C@H](CC(=O)NO)CC3)ccnc2n1` [Compound 89] gave an IC50 of 24 nM.
On the same count and under the same terms, as for `CCn1ncc2c(Nc3ccc(CC(=O)NO)c(F)c3)ccnc21` [Compound 193], the figure is 2.2 nM; as for `COc1ccc2c(OC3CCN(C(C)(C)C(=O)NO)CC3)ccnc2n1` [Compound 116], 21 nM.
Regarding `COc1ccc2c(Oc3ccc([C@H](C(=O)NO)C4CCOCC4)c(F)c3)ccnc2n1` [Compound 206], inhibition was half-maximal at 12 nM (IC50).
`COc1ccc2c(Nc3cnn(C(C)(C)C(=O)NO)c3)ccnc2n1` [Compound 118]: the IC50 was 1.5 nM.
For `Cc1noc2ncnc(Oc3ccc(C(C)(C)C(=O)NO)cc3)c12` [Compound 194, N-hydroxy-2-methyl-2-(4-((3-methylisoxazol[5,4-d]pyrimidin-4-yl)oxy)phenyl)propanamide], the IC50 was 284 nM. Compared with the last compound, the IC50 is about 190-fold higher.
`Cn1ncc2c(Nc3ccc(CC(=O)NO)cc3)ncnc21` [Compound 15] gave an IC50 of 19 nM.
Turning to `CCn1ncc2c(Oc3ccc(C(C)(C)C(=O)NO)cc3)ccnc21` [Compound 53], inhibition was half-maximal at 2.9 nM (IC50).
`COc1ccc2c(Oc3cc(F)c(C(C)(C)C(=O)NO)cc3F)ccnc2n1` [Compound 112] returned an IC50 of 2.5 nM.
The compound `COc1ccc2c(NC3CCN(C(C)(C)C(=O)NO)CC3)ccnc2n1` [Compound 117] registered an IC50 of 2.1 nM.
In the case of `COc1ccc2c(Oc3ccc(CC(=O)NO)cc3)ncnc2c1` [Compound 8], the IC50 worked out at 2.17 nM. The IC50 values of the last two compounds are within 1.5-fold of each other.
The compound `COc1ccc2c(Oc3ccc(C(N)C(=O)NO)cc3)ccnc2n1` (stereo not shown) [Compound 148] returned an IC50 of 2.8 nM.
The same measure, in the same setting: as for `CCn1nc(C)c2c(Nc3ccc(CC(=O)NO)cc3)ncnc21` [Compound 74], the figure is 7.8 nM; as for `COc1cc2nccc(Nc3cc(F)c(C(C(=O)NO)C(C)C)c(F)c3)c2cn1` (stereo not shown) [Compound 191], 11 nM; as for `COc1ccc2c(Oc3ccc(C4(C(=O)NO)CCN(C)CC4)cc3)ccnc2n1` [Compound 146], 13 nM.
Regarding `COc1ccc2c(Oc3ccc(C4(C(=O)NO)CCOCC4)c(Cl)c3)ccnc2n1` [Compound 135], it took 7.1 nM to reach half-maximal inhibition (IC50).
The same measure, in the same setting: under `COc1cc2nccc(Nc3ccc(C(C(=O)NO)C(C)C)cc3)c2cn1` (stereo not shown) [Compound 177] stands 7.9 nM; under `COc1ccc2c(Nc3ccc(C(C)(C)C(=O)NO)cn3)ccnc2n1` [Compound 101], 1.1 nM; under `CC(C(=O)NO)c1ccc(Oc2ccnc3c2cnn3C)cc1` (stereo not shown) [Compound 36], 24 nM.
Same read-out and setting: as for `COc1ccc2c(Nc3ccc(C(C)C(=O)NO)c(F)c3)ccnc2n1` (stereo not shown) [Compound 61], the figure is 1.7 nM; as for `CCn1ncc2c(Nc3ccc(CC(=O)NO)c(Cl)c3)ccnc21` [Compound 77], 1.2 nM; as for `Cn1ncc2c(Nc3ccc(C(C)(C)C(=O)NO)cc3)ccnc21` [Compound 81], 1.9 nM.
Same read-out and setting: under `COc1ccc2c(Nc3cc(F)c(CC(=O)NO)cc3F)ccnc2n1` [Compound 52] stands 2.2 nM.
Compound `COc1ccc2c(Nc3ccc(CC(=O)NO)nc3)ccnc2n1` [Compound 44] displayed an IC50 of 2.7 nM.
Still for that read-out and setting: as for `COc1ccc2c(Nc3cnn(CC(=O)NO)c3)ccnc2n1` [Compound 90], the figure is 4.5 nM; as for `Cc1nn(C)c2nccc(Nc3ccc(CC(=O)NO)cc3)c12` [Compound 55], 4.3 nM.
Same read-out and setting: as for `COc1ccc2c(Nc3ccc4c(c3)OCC4C(=O)NO)ccnc2n1` (stereo not shown) [Compound 59], the figure is 1.8 nM; as for `COc1cc2nccc(Nc3ccc(CC(=O)NO)cc3F)c2cn1` [Compound 190], 3.9 nM.
As to `CCn1ncc2c(Nc3ccc(CC(=O)NO)c(OC)c3)ccnc21` [Compound 56], the IC50 was determined as 2.3 nM.
Turning to `COc1ccc2c(Oc3c(F)cc(C4(C(=O)NO)CCOCC4)cc3F)ccnc2n1` [Compound 137], the IC50 stood at 2.6 nM.
For the compound `Cn1ncc2ncnc(Nc3ccc(CC(=O)NO)cc3)c21` [Compound 29], the IC50 turned out to be 14 nM. This IC50 lies about 5.4-fold higher than the previous one.
The same measure, in the same setting: under `COc1ccc2c(Nc3ccc(C(CC(C)C)C(=O)NO)cc3)ccnc2n1` (stereo not shown) [Compound 182] stands 1.7 nM; under `COc1ccc2c(Oc3ccc([C@@H](C(=O)NO)C4CCOCC4)c(F)c3)ccnc2n1` [Compound 198], 61 nM; under `COc1ccc2c(Oc3ccc(C(C)(C)C(=O)NO)c(Cl)c3)ccnc2n1` [Compound 103], 21 nM.
The same measure, in the same setting: as for `COc1ccc2c(Nc3ccc(CC(=O)NO)cc3)nc(C)nc2n1` [Compound 37], the figure is 2.4 nM.
The same measure, in the same setting: under `CCn1nc(C)c2c(Nc3ccc(C(C)(C)C(=O)NO)cc3)ncnc21` [Compound 83] stands 4.4 nM; under `Cn1ncc2c(Nc3ccc(CC(=O)NO)cc3)ccnc21` [Compound 40], 4.8 nM; under `COc1ccc2c(Nc3c(F)cc(CC(=O)NO)cc3F)ccnc2n1` [Compound 71], 1.8 nM.
The compound `O=C(Cc1ccc(Nc2ncnc3c2cnn3C2CC2)cc1)NO` [Compound 34] came in with a concentration for half-maximal inhibition (IC50) of 376 nM.
Same read-out and setting: as for `COc1ccc2c(Oc3ccc4c(c3)CCCC4(C)C(=O)NO)ccnc2n1` (stereo not shown) [Compound 203], the figure is 1.8 nM.
Still for that read-out and setting: as for `COc1ccc2c(NC3CCC(CC(=O)NO)C3)ccnc2n1` (stereo not shown) [Compound 142], the figure is 13 nM.
On the same count and under the same terms, as for `O=C(Cc1ccc(Nc2ncnc3nc(O)ccc23)cc1)NO` [Compound 31], the figure is 20 nM; as for `COc1ccc2c(Nc3ccc(CC(=O)NO)cc3)nc(Cl)nc2c1` [Compound 22], 1.8 nM; as for `Cn1ncc2c(Nc3ccc(C4(C(=O)NO)CCOCC4)cc3)ncnc21` [Compound 207], 9.3 nM.

For the origin of these results see patent publication US20240383893A1, “Hydroxamic Acid Compound Having ENPP1 Inhibitory Activity and Use Thereof” (Haihe Biopharma Co., Ltd., priority 2021, published 2024).
